Data reported in ChEMBL document CHEMBL1139709, “6-Hydroxy- and 6-methoxy-beta-carbolines as acetyl- and butyrylcholinesterase inhibitors” (Bioorg Med Chem Lett, 2006).

Tests used:
[1] = target: Acetylcholinesterase (Homo sapiens, UniProt P22303); test: Inhibition of AChE
[2] = target: Cholinesterase (Homo sapiens, UniProt P06276); test: Inhibition of BChE
Sequence of Cholinesterase (P06276 whole entry): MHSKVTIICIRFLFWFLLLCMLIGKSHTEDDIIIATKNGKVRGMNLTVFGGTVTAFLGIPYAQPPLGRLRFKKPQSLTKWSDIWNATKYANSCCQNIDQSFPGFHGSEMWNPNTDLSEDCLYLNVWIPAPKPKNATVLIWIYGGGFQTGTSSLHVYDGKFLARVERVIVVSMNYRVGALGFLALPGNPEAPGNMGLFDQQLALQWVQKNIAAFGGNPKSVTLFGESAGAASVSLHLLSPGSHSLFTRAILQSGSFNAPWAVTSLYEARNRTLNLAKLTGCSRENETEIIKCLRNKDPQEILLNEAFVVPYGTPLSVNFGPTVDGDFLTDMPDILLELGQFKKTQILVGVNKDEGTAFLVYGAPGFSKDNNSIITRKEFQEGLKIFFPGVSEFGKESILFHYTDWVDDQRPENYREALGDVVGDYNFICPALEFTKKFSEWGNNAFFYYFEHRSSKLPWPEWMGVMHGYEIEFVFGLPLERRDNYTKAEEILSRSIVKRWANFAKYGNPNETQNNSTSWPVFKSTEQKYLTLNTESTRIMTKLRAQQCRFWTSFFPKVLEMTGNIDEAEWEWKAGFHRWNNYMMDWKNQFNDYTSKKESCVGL

Sequence of Acetylcholinesterase (P22303 whole entry): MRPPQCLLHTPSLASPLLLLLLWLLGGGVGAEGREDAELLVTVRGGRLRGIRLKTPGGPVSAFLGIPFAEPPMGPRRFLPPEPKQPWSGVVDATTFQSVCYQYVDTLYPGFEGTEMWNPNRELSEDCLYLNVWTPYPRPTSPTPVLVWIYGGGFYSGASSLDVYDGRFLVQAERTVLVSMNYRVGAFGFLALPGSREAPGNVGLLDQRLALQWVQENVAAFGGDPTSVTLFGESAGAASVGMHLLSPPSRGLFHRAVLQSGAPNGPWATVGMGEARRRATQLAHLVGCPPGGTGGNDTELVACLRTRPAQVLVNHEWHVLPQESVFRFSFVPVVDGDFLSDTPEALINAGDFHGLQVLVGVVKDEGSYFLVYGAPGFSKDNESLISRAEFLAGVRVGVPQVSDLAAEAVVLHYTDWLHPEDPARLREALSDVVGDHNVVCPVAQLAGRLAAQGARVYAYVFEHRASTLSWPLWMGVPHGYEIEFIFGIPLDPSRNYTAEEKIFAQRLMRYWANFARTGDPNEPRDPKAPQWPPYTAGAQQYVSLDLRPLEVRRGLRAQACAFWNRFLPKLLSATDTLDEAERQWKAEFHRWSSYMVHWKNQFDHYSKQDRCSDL

Row | Compound | IC50 ([1]; read-out: IC50) [µM] | IC50 ([2]; read-out: IC50) [µM] | IC50 ([2]; read-out: Log IC50 (converted)) [µM] | IC50 ([1]; read-out: Log IC50 (converted)) [µM]
1 | COc1ccc2[nH]c3c(C)[n+](C)ccc3c2c1 | 0.8 | 1.2 | 1.1 | 
2 | COc1ccc2[nH]c3c(C)nccc3c2c1 | > 10 | > 10 |  | 
3 | Oc1ccc2[nH]c3cnccc3c2c1 | > 10 | > 10 |  | 
4 | COc1ccc2c(c1)c1ccncc1n2C | > 10 | > 10 |  | 
5 | Cc1c2c(cc[n+]1C)c1cc(O)ccc1n2C | 1.9 | 2.7 |  | 
6 | COc1ccc2[nH]c3c(c2c1)CCNC3 | > 10 | > 10 |  | 
7 | Cc1nccc2c3cc(O)ccc3n(C)c12 | > 10 | > 10 |  | 
8 | Cc1c2[nH]c3ccc(O)cc3c2cc[n+]1C | 1 | 1.6 |  | 
9 | C[n+]1ccc2c(c1)[nH]c1ccc(O)cc12 | 4.2 | 8.7 |  | 
10 | COc1ccc2c(c1)c1cc[n+](C)c(C)c1n2C | > 10 | > 10 |  | 
11 | COc1ccc2[nH]c3c[n+](C)ccc3c2c1 | 2.2 | 17.5 |  | 
12 | COc1ccc2[nH]c3c(c2c1)CCNC3C (stereo not drawn) [ADRENOGLOMERULOTROPIN] | > 10 | > 10 |  | 
13 | Cn1c2ccc(O)cc2c2ccncc21 | > 10 | > 10 |  | 
14 | COc1ccc2c(c1)c1ccnc(C)c1n2C | 11.8 | 17.4 |  | 
15 | Cn1c2ccc(O)cc2c2cc[n+](C)cc21 | 1.8 | 32.2 |  | 
16 | Cc1nccc2c1[nH]c1ccc(O)cc12 | > 10 | > 10 |  | 
17 | COc1ccc2[nH]c3cnccc3c2c1 | > 10 | > 10 |  | 
18 | COc1ccc2c(c1)c1cc[n+](C)cc1n2C | 1.3 | 20.9 |  | 1.4
